The results in this text go back to patent publication US11753407B2, “Compounds for treating spinal muscular atrophy” (PTC Therapeutics, Inc., priority 2012, dated 2023).

In experiment [1] the test system is Smn protein in SMA patient fibroblast cells (GM03813). Briefly: Smn protein assay in cultured cells (SMN HTRF). The experiment is classed as cell-based, human. The conditions noted are these: SMA patient fibroblast cells, 48 hours; for EC1.5x for Smn protein expression: 7-point concentration curve, SMN HTRF, concentration producing 1.5 times Smn protein vs DMSO vehicle control; for maximum fold (Fold) increase of Smn protein: 7-point concentration data, fold relative to vehicle control. In a few lines:
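Read-out: HTRF 665/620 nm ratio, blank-subtracted as ΔF, then expressed as fold over DMSO vehicle. Fibroblasts from SMA patients were exposed to compounds for 48 h (7 points, 3.16-fold steps, triplicates). Values are EC1.5× and maximum fold Smn increase.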
A general note: TR-FRET usually uses a lanthanide donor and a delayed reading to cut background.

Experiment [2] has as its system SMN2 minigene mRNA (SMN2-A minigene) in HEK293H cells. Briefly: SMN2 minigene mRNA splicing RT-qPCR assay in cultured cells. The format is cell-based, human. The conditions noted are these: Homo sapiens, HEK293-H; concentration increasing full length SMN2 mRNA 1.5-fold relative to vehicle-treated cells; HEK293H cells with SMN2-A minigene, 24 hours, 7-point concentration data; read-out: EC1.5x for production of full length SMN2 mRNA. The essentials: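 Read-out: minigene-specific full-length (exon 7-included) SMN2 mRNA by one-step multiplex RT-qPCR, normalized to GAPDH and divided by vehicle-treated level. Stable SMN2-A minigene HEK293H cells, 24 h compound exposure, 7 concentrations in duplicate. EC1.5× = concentration raising FL mRNA 1.5-fold.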
(Quantitative PCR measures a nucleic acid by following its amplification.)

Take `Cc1cn2nc(-c3cc(=O)n4cc(N5CCN(CCOCCO)[C@H](C)C5)cc(C)c4n3)cc2c(C)n1` [Compound 670, 2-(4,6-dimethylpyrazolo[1,5-a]pyrazin-2-yl)-7-{(3R)-4-[2-(2-hydroxyethoxy)ethyl]-3-methylpiperazin-1-yl}-9-methyl-4H-pyrido[1,2-a]pyrimidin-4-one]: in experiment [1], the “EC1.5x for Smn protein expression” value was “**** (an EC1.5x≤0.3 μM is indicated by four stars (****))” and the “maximum fold (Fold) increase of Smn protein” value (“maximum fold (Fold) increase” for short) is given as “***** (a fold increase >1.65 is indicated by five stars (*****))”. In addition, the EC (1.5-fold increase) in experiment [2] was < 0.1 µM.
As for `Cc1cn2nc(-c3cc(=O)n4cc(N5C[C@@H](C)N[C@@H](C)C5)ccc4n3)cc2c(C)n1` [Compound 131, 7-[(3R,5S)-3,5-dimethylpiperazin-1-yl]-2-(4,6-dimethylpyrazolo[1,5-a]pyrazin-2-yl)-4H-pyrido[1,2-a]pyrimidin-4-one], in experiment [1], the “EC1.5x for Smn protein expression” value is “** (an EC1.5× between >1 μM and ≤3 μM is indicated by two stars (**))”; the “maximum fold (Fold) increase” value was “*** (a fold increase between >1.35 and ≤1.5 is indicated by three stars (***))”. In experiment [2], the EC (1.5-fold increase) is < 0.1 µM.
For `Cc1cn2nc(-c3cc(=O)n4cc(C5CCNCC5)ncc4n3)cc2c(C)n1` [Compound 502, 2-(4,6-dimethylpyrazolo[1,5-a]pyrazin-2-yl)-7-(piperidin-4-yl)-4H-pyrazino[1,2-a]pyrimidin-4-one], in experiment [1], the “EC1.5x for Smn protein expression” value is “**** (an EC1.5x≤0.3 μM is indicated by four stars (****))” and the “maximum fold (Fold) increase” value is “***** (a fold increase >1.65 is indicated by five stars (*****))”. The EC (1.5-fold increase) in experiment [2] was < 0.1 µM.
Regarding `CCc1nc(C)cn2nc(-c3cc(=O)n4cc(N5CCN6CCC[C@H]6C5)cc(C)c4n3)cc12` [Compound 818, 2-(4-ethyl-6-methylpyrazolo[1,5-a]pyrazin-2-yl)-7-[(8aS)-hexahydropyrrolo[1,2-a]pyrazin-2(1H)-yl]-9-methyl-4H-pyrido[1,2-a]pyrimidin-4-one], in experiment [1], the “EC1.5x for Smn protein expression” value is “*** (an EC1.5× between >0.3 μM and ≤1 μM is indicated by three stars (***))”; the “maximum fold (Fold) increase” value is on record as “***** (a fold increase >1.65 is indicated by five stars (*****))”. Besides, the EC (1.5-fold increase) in experiment [2] lay within 0.1 to 0.3 µM.
Turning to `CCc1nc(C)cn2nc(-c3cc(=O)n4cc(OCCN(C)C)cc(C)c4n3)cc12` [Compound 829, 7-[2-(dimethylamino)ethoxy]-2-(4-ethyl-6-methylpyrazolo[1,5-a]pyrazin-2-yl)-9-methyl-4H-pyrido[1,2-a]pyrimidin-4-one], in experiment [1], the “EC1.5x for Smn protein expression” value was “** (an EC1.5× between >1 μM and ≤3 μM is indicated by two stars (**))”; the “maximum fold (Fold) increase” value was “***** (a fold increase >1.65 is indicated by five stars (*****))”. In addition, the EC (1.5-fold increase) in experiment [2] was in the range of 0.1 to 0.3 µM.
As to `COc1ccc(-c2cc(=O)n3cc(N4CCNCC4)cc(C)c3n2)cc1OC` [Compound 160, 2-(3,4-dimethoxyphenyl)-9-methyl-7-(piperazin-1-yl)-4H-pyrido[1,2-a]pyrimidin-4-one], in experiment [1], the “EC1.5x for Smn protein expression” value is “*** (an EC1.5× between >0.3 μM and ≤1 μM is indicated by three stars (***))”; the “maximum fold (Fold) increase” value is “*** (a fold increase between >1.35 and ≤1.5 is indicated by three stars (***))”. In experiment [2], the EC (1.5-fold increase) is < 0.1 µM.
Regarding `Cc1cn2cc(-c3cc(=O)n4cc(N5CCN(C)CC5)ccc4n3)cc(F)c2n1` [Compound 269, 2-(8-fluoro-2-methylimidazo[1,2-a]pyridin-6-yl)-7-(4-methylpiperazin-1-yl)-4H-pyrido[1,2-a]pyrimidin-4-one], in experiment [1], the “EC1.5x for Smn protein expression” value is on record as “**** (an EC1.5x≤0.3 μM is indicated by four stars (****))” and the “maximum fold (Fold) increase” value is “***** (a fold increase >1.65 is indicated by five stars (*****))”. The EC (1.5-fold increase) in experiment [2] was < 0.1 µM.
With `Cc1cn2nc(-c3cc(=O)n4cc(N5CCNCC5)ccc4n3)cc2c(C)n1` [Compound 120, 2-(4,6-dimethylpyrazolo[1,5-a]pyrazin-2-yl)-7-(piperazin-1-yl)-4H-pyrido[1,2-a]pyrimidin-4-one], in experiment [1], the “EC1.5x for Smn protein expression” value was “**** (an EC1.5x≤0.3 μM is indicated by four stars (****))” and the “maximum fold (Fold) increase” value was “***** (a fold increase >1.65 is indicated by five stars (*****))”. In experiment [2], the EC (1.5-fold increase) is < 0.1 µM.
On the same counts, the results for `Cc1cn2cc(-c3cc(=O)n4cc(C5CCN(CCO)CC5)ccc4n3)cc(C)c2n1` [Compound 617, 2-(2,8-dimethylimidazo[1,2-a]pyridin-6-yl)-7-[1-(2-hydroxyethyl)piperidin-4-yl]-4H-pyrido[1,2-a]pyrimidin-4-one] are “**** (an EC1.5x≤0.3 μM is indicated by four stars (****))”, “***** (a fold increase >1.65 is indicated by five stars (*****))” and < 0.1 µM.
Consider `CCNC[C@@H]1CCN(c2ccc3nc(-c4cc5c(C)nc(C)cn5n4)cc(=O)n3c2)C1` [Compound 779, 2-(4,6-dimethylpyrazolo[1,5-a]pyrazin-2-yl)-7-{(3S)-3-[(ethylamino)methyl]pyrrolidin-1-yl}-4H-pyrido[1,2-a]pyrimidin-4-one], for which, in experiment [1], the “EC1.5x for Smn protein expression” value is “**** (an EC1.5x≤0.3 μM is indicated by four stars (****))” and the “maximum fold (Fold) increase” value is given as “***** (a fold increase >1.65 is indicated by five stars (*****))”. The EC (1.5-fold increase) in experiment [2] is < 0.1 µM.
The corresponding values for `CCc1nc(C)cn2nc(-c3cc(=O)n4cc(N5CCN6CCC[C@@H]6C5)ccc4n3)cc12` [Compound 813, 2-(4-ethyl-6-methylpyrazolo[1,5-a]pyrazin-2-yl)-7-[(8aR)-hexahydropyrrolo[1,2-a]pyrazin-2(1H)-yl]-4H-pyrido[1,2-a]pyrimidin-4-one] are “**** (an EC1.5x≤0.3 μM is indicated by four stars (****))”, “***** (a fold increase >1.65 is indicated by five stars (*****))” and < 0.1 µM.
As for `COc1ccc(-c2cc(=O)n3cc(N4CCC(NC(C)C)CC4)ccc3n2)cc1OC` [Compound 361, 2-(3,4-dimethoxyphenyl)-7-[4-(propan-2-ylamino)piperidin-1-yl]-4H-pyrido[1,2-a]pyrimidin-4-one], in experiment [1], the “maximum fold (Fold) increase” value is “*** (a fold increase between >1.35 and ≤1.5 is indicated by three stars (***))”. Further, in experiment [2], the EC (1.5-fold increase) is 0.1 to 0.3 µM.
With `Cc1nc2c(F)cc(-c3cc(=O)n4cc(N5CCN(C)CC5)ccc4n3)cc2o1` [Compound 308, 2-(4-fluoro-2-methyl-1,3-benzoxazol-6-yl)-7-(4-methylpiperazin-1-yl)-4H-pyrido[1,2-a]pyrimidin-4-one], in experiment [1], the “EC1.5x for Smn protein expression” value is listed as “**** (an EC1.5x≤0.3 μM is indicated by four stars (****))” and the “maximum fold (Fold) increase” value is recorded as “***** (a fold increase >1.65 is indicated by five stars (*****))”. Besides, the EC (1.5-fold increase) in experiment [2] was < 0.1 µM.
Consider `CCN1CCN(c2cc(C)c3nc(-c4cc5c(C)nc(C)cn5n4)cc(=O)n3c2)CC1` [Compound 508, 2-(4,6-dimethylpyrazolo[1,5-a]pyrazin-2-yl)-7-(4-ethylpiperazin-1-yl)-9-methyl-4H-pyrido[1,2-a]pyrimidin-4-one], for which, in experiment [1], the “EC1.5x for Smn protein expression” value was “*** (an EC1.5× between >0.3 μM and ≤1 μM is indicated by three stars (***))”; the “maximum fold (Fold) increase” value is “**** (a fold increase between >1.5 and ≤1.65 is indicated by four stars (****))”. Besides, the EC (1.5-fold increase) in experiment [2] is < 0.1 µM.
